# Assay results as given in ChEMBL document CHEMBL5725356, “Anti-fibrotic pyridinones” (2017).
# Assay: ET-1 Assay: Fibroblasts (primary human lung and dermal, HFL-1, 3T3 etc) are seeded in 96-well plates at ~15000 cells/well and serum starved for 0-48 hours. After media exchange, compounds serially diluted in DMSO are added to the cells. After a brief incubation of ~30 min, stimulants (TGFb, serum, LPA etc) are added followed by further incubation for 16-48 hours. Media is then harvested and stored frozen in plate format for later endothelin-1 (ET-1) determination by ELISA. Toxicity measurements are made using the ATPlite kit (Perkin-Elmer). ET-1 is quantified using an ELISA kit (R&D Systems). The amount of ET-1 produced in the assay wells are back-calculated using the ELISA standard. The ability of a compound to inhibit ET-1 production is typically analyzed by fitting dose-response curves to a 4-parameter logistic function to obtain an EC50 value.
# Details: HFL1
row,Structure (SMILES),EC50
1,CCCCOC(=O)n1cc(-c2ccc(=O)n(-c3ccccc3)c2)cn1,in the range around 125 µM
2,Cc1cn(-c2ccccc2)c(=O)c2c1CCCC2,in the range around 125 µM
3,Cn1cc(-c2cn(-c3ccc(OC(F)(F)F)cc3)c(=O)c3c2OCC(=O)N3Cc2ccccc2)cn1,> 200 µM
4,CCOc1ccc(-n2cc(-c3ccc(F)cc3)c3nccnc3c2=O)c(C)c1,> 200 µM
5,O=c1cc(OCCN2CCCC2)c(-c2ccc(F)cc2)cn1-c1ccc(OC(F)(F)F)cc1,< 50 µM
6,O=C1CCCN1CCOc1cc(=O)n(-c2ccc(OC(F)(F)F)cc2)cc1-c1ccc(F)cc1,> 200 µM
7,O=c1ccc(C2CCCC2)cn1-c1ccccc1,in the range around 125 µM
8,O=C(NCc1ccccc1)c1cc(=O)n(-c2ccc(OC(F)(F)F)cc2)cc1-c1ccc(F)cc1,> 200 µM
9,CC(=O)c1ccc(=O)n(-c2ccccc2Cl)c1,in the range around 125 µM
10,O=C1COc2c(-c3ccc(F)cc3)cn(-c3ccc(OC(F)(F)F)cc3)c(=O)c2N1,> 200 µM
11,COCCOc1ccc(-n2cc(-c3ccc(F)cc3)c(C)cc2=O)cc1,in the range around 125 µM
12,CN1CCC(Oc2cc(=O)n(-c3ccc(OC(F)(F)F)cc3)cc2-c2ccc(F)cc2)CC1,< 50 µM
13,Cc1ccc(=O)n(CCc2ccccc2)c1,in the range around 125 µM
14,O=c1c2c(c(-c3cccc(F)c3)cn1-c1ccc(OC(F)(F)F)cc1)CCCC2,< 50 µM
15,CCn1ccc2c(-c3cnn(C)c3)cn(-c3ccc(OC(F)(F)F)cc3)c(=O)c21,< 50 µM
16,O=C1COc2c(-c3ccc(F)cc3)cn(-c3ccc(OC(F)(F)F)cc3)c(=O)c2N1Cc1ccccc1,> 200 µM
17,O=c1cc(O)c(-c2ccc(F)cc2)cn1-c1ccc(OC(F)(F)F)cc1,in the range around 125 µM
18,CC(=O)Nc1cccc(-n2cc(C(C)=O)ccc2=O)c1,> 200 µM
19,COc1cc(=O)n(-c2ccc(OC(F)(F)F)cc2)cc1-c1ccc(F)cc1,> 200 µM
20,O=c1cc(OCCN2CCS(=O)(=O)CC2)c(-c2ccc(F)cc2)cn1-c1ccc(OC(F)(F)F)cc1,> 200 µM
21,O=C(c1ccccc1)n1cc(-c2ccc(=O)n(-c3ccccc3)c2)cn1,> 200 µM
22,O=c1cc(OC2CCS(=O)(=O)CC2)c(-c2ccc(F)cc2)cn1-c1ccc(OC(F)(F)F)cc1,< 50 µM
23,Cn1cc(-c2cn(-c3ccc(OC(F)(F)F)cc3)c(=O)c3nc[nH]c23)cn1,> 200 µM
24,CCCNC(=O)Nc1cc(=O)n(-c2ccc(OC(F)(F)F)cc2)cc1-c1ccc(F)cc1,> 200 µM
25,COC(=O)Nc1cc(=O)n(-c2ccc(OC(F)(F)F)cc2)cc1-c1ccc(F)cc1,> 200 µM
26,O=C1CNCCN1CCOc1cc(=O)n(-c2ccc(OC(F)(F)F)cc2)cc1-c1ccc(F)cc1,> 200 µM

row,Structure (SMILES),EC50
1,COCCOc1ccc(-n2cc(-c3ccccc3)c(C)cc2=O)cc1,< 50 µM
2,O=c1c2nsnc2c(-c2ccc(F)cc2)cn1-c1ccc(OC(F)(F)F)cc1,> 200 µM
3,O=c1cc(NCc2ccccc2)c(-c2ccc(F)cc2)cn1-c1ccc(OC(F)(F)F)cc1,> 200 µM
4,CC(=O)c1ccc(=O)n(-c2ccc(F)cc2)c1,> 200 µM
5,O=c1ccc(C2CCCCC2)cn1-c1ccccc1,in the range around 125 µM
6,Cn1cc(-c2cn(-c3ccc(OC(F)(F)F)cc3)c(=O)c3ccc(C(F)(F)F)nc23)cn1,< 50 µM
7,CCCOC(=O)Nc1cc(=O)n(-c2ccc(OC(F)(F)F)cc2)cc1-c1ccc(F)cc1,> 200 µM
8,COCCOc1cc(=O)n(-c2ccc(OC(F)(F)F)cc2)cc1-c1ccc(F)cc1,> 200 µM
9,CS(=O)(=O)n1cc(-c2ccc(=O)n(-c3ccccc3)c2)cn1,> 200 µM
10,CCOc1ccc(-n2cc(-c3cnn(C)c3)c3nccnc3c2=O)c(C)c1,< 50 µM
11,CCOc1ccc(-n2cc(-c3cnn(C)c3)c3c(c2=O)CCCC3)c(C)c1,< 50 µM
12,Cn1cc(-c2cn(-c3ccc(OC(F)(F)F)cc3)c(=O)c3c2CCCC3)cn1,< 50 µM
13,O=c1ccc(C2CCC2)cn1-c1ccccc1,> 200 µM
14,CCOc1ccc(-n2cc(Br)c3nccnc3c2=O)c(C)c1,< 50 µM
15,Cn1cnc2c(-c3ccc(F)cc3)cn(-c3ccc(OC(F)(F)F)cc3)c(=O)c21,< 50 µM
16,O=C(Nc1cc(=O)n(-c2ccc(OC(F)(F)F)cc2)cc1-c1ccc(F)cc1)OCc1ccccc1,> 200 µM
17,O=C1Cc2ccccc2N1c1ccc(OC(F)(F)F)cc1,in the range around 125 µM
18,CCOC(=O)Nc1cc(=O)n(-c2ccc(OC(F)(F)F)cc2)cc1-c1ccc(F)cc1,> 200 µM
19,COc1cc(=O)n(-c2ccc(OC(F)(F)F)cc2)cc1-c1cnn(C)c1,< 50 µM
20,CCC(=O)Nc1cc(=O)n(-c2ccc(OC(F)(F)F)cc2)cc1-c1ccc(F)cc1,> 200 µM
21,O=c1ccc2c(n1-c1ccccc1)CCC2,> 200 µM
22,CC(=O)c1ccc(=O)n(-c2cccc(C(F)(F)F)c2)c1,> 200 µM
23,Cc1cn(C)c2c(=O)n(-c3ccc(OC(F)(F)F)cc3)cc(-c3ccc(F)cc3)c12,< 50 µM
24,CC(=O)c1ccc(=O)n(-c2ccc(OC(C)C)cc2)c1,> 200 µM
25,O=c1cc(Oc2ccccc2)c(-c2ccc(F)cc2)cn1-c1ccc(OC(F)(F)F)cc1,> 200 µM
26,COCCOc1ccc(-n2cc(-c3cn[nH]c3)c(C)cc2=O)cc1,> 200 µM

row,Structure (SMILES),EC50
1,Nc1cc(=O)n(-c2ccc(OC(F)(F)F)cc2)cc1-c1ccc(F)cc1,in the range around 125 µM
2,CCOc1ccc(-n2cc(C(C)=O)ccc2=O)c(C)c1,> 200 µM
3,COCCOCCOCCOc1ccc(-n2cc(C)ccc2=O)cc1,> 200 µM
4,O=c1c2c(c(-c3cn[nH]c3)cn1-c1ccc(OC(F)(F)F)cc1)CCCC2,in the range around 125 µM
5,Cn1cc(-c2cn(-c3ccc(OC(F)(F)F)cc3)c(=O)c3c2NCCC3)cn1,> 200 µM
6,O=c1cc(Cl)c(-c2ccc(F)cc2)cn1-c1ccc(OC(F)(F)F)cc1,< 50 µM
7,Cc1ccc(=O)n(Cc2ccccc2)c1,> 200 µM
8,O=c1c2c(c(-c3ccc(F)cc3)cn1-c1ccc(OC(F)(F)F)cc1)NCCC2,> 200 µM
9,CCOC(=O)n1cc(-c2ccc(=O)n(-c3ccccc3)c2)cn1,< 50 µM
10,COc1cccc(-n2cc(C(C)=O)ccc2=O)c1,> 200 µM
11,O=c1c2ncn(Cc3ccccc3)c2c(-c2ccc(F)cc2)cn1-c1ccc(OC(F)(F)F)cc1,> 200 µM
12,O=c1ccc2c(n1-c1ccc(OC(F)(F)F)cc1)CCC2,in the range around 125 µM
13,CC(=O)c1ccc(=O)n(-c2cccc(F)c2)c1,> 200 µM
14,CCOc1ccc(-n2cc(-c3ccc(F)cc3)c(OC)cc2=O)c(C)c1,< 50 µM
15,CN1CCN(CCOc2cc(=O)n(-c3ccc(OC(F)(F)F)cc3)cc2-c2ccc(F)cc2)CC1,< 50 µM
16,CCCCC(=O)Nc1cc(=O)n(-c2ccc(OC(F)(F)F)cc2)cc1-c1ccc(F)cc1,> 200 µM
17,O=c1c2nccnc2c(-c2ccc(F)cc2)cn1-c1ccc(OC(F)(F)F)cc1,< 50 µM
18,CC(=O)Nc1cc(=O)n(-c2ccc(OC(F)(F)F)cc2)cc1-c1ccc(F)cc1,> 200 µM
19,O=c1cc(OCCN2CCOCC2)c(-c2ccc(F)cc2)cn1-c1ccc(OC(F)(F)F)cc1,in the range around 125 µM
20,Cn1cc(-c2cn(-c3ccc(OC(F)(F)F)cc3)c(=O)c3ncn(Cc4ccccc4)c23)cn1,> 200 µM
21,Cn1cc(-c2cn(-c3ccccc3)c(=O)c3c2CCCC3)cn1,< 50 µM
22,Cc1ccc2c(c1)CC(=O)N2c1ccc(OC(F)(F)F)cc1,> 200 µM
23,O=c1cc(OCc2ccccc2)c(-c2ccc(F)cc2)cn1-c1ccc(OC(F)(F)F)cc1,> 200 µM
24,O=c1c2ccc(C(F)(F)F)nc2c(-c2ccc(F)cc2)cn1-c1ccc(OC(F)(F)F)cc1,> 200 µM
25,O=C1COCCN1CCOc1cc(=O)n(-c2ccc(OC(F)(F)F)cc2)cc1-c1ccc(F)cc1,in the range around 125 µM
26,C[C@H]1CCC(=O)N(c2ccccc2)C1,> 200 µM

row,Structure (SMILES),EC50
1,O=C(NCc1ccccc1)Nc1cc(=O)n(-c2ccc(OC(F)(F)F)cc2)cc1-c1ccc(F)cc1,> 200 µM
2,COCCOc1ccc(-n2cc(-c3cnn(C)c3)c(C)cc2=O)cc1,> 200 µM
3,CC(=O)n1cc(-c2ccc(=O)n(-c3ccccc3)c2)cn1,> 200 µM
4,CN1C(=O)COc2c(-c3ccc(F)cc3)cn(-c3ccc(OC(F)(F)F)cc3)c(=O)c21,> 200 µM
5,Cn1cc(-c2cn(-c3ccc(OC(F)(F)F)cc3)c(=O)c3cccnc23)cn1,< 50 µM
6,CC(=O)c1ccc(=O)n(-c2ccc(Cl)cc2)c1,> 200 µM
7,O=c1ccc(-c2ccc(F)cc2)cn1Cc1ccccc1,< 50 µM
8,C[C@@H]1CCC(=O)N(c2ccccc2)C1,> 200 µM
9,CC(C)C(=O)Nc1cc(=O)n(-c2ccc(OC(F)(F)F)cc2)cc1-c1ccc(F)cc1,> 200 µM
10,Cn1cc(-c2cn(-c3ccc(OC(F)(F)F)cc3)c(=O)cc2Cl)cn1,> 200 µM
11,Cn1cc(-c2cn(-c3ccc(OC(F)(F)F)cc3)c(=O)cc2O)cn1,> 200 µM
12,CC(C)OC(=O)Nc1cc(=O)n(-c2ccc(OC(F)(F)F)cc2)cc1-c1ccc(F)cc1,> 200 µM
13,CNc1cc(=O)n(-c2ccc(OC(F)(F)F)cc2)cc1-c1ccc(F)cc1,> 200 µM
14,O=c1c2cccnc2c(-c2ccc(F)cc2)cn1-c1ccc(OC(F)(F)F)cc1,> 200 µM
15,CCOc1ccc(-n2cc(-c3cn[nH]c3)c3c(c2=O)CCCC3)c(C)c1,< 50 µM
16,Cn1cc(-c2cn(-c3ccc(OC(F)(F)F)cc3)c(=O)c3nccnc23)cn1,< 50 µM
17,CC(C)NC(=O)n1cc(-c2ccc(=O)n(-c3ccccc3)c2)cn1,in the range around 125 µM
18,O=c1c2c(c(-c3ccc(F)cc3)cn1-c1ccc(OC(F)(F)F)cc1)CCCC2,> 200 µM
19,COCCOCCOCCOc1cccc(-n2cc(C)ccc2=O)c1,> 200 µM
20,O=c1ccc(-c2ccc(F)cc2)cn1CCc1ccccc1,in the range around 125 µM
21,CCCC(=O)Nc1cc(=O)n(-c2ccc(OC(F)(F)F)cc2)cc1-c1ccc(F)cc1,> 200 µM
22,O=C(Nc1cc(=O)n(-c2ccc(OC(F)(F)F)cc2)cc1-c1ccc(F)cc1)Oc1ccccc1,> 200 µM
23,O=c1c2nc[nH]c2c(-c2ccc(F)cc2)cn1-c1ccc(OC(F)(F)F)cc1,> 200 µM
